Data on 17 compounds can be found in patent publication US9340548B2, “Substituted pyrazolo[3,4-a]carbazoles as hepatitis C inhibitors” (priority 2011, dated 2016).

Molecules are shown by their SMILES.

The test relates to HCVpp (HCV E1/E2, isolate Con1) entry into Hep3B2.1-7 cells. Put plainly: microbe, parasite or virus in culture. It is filed as cell-based. The note with it: Hepatitis C virus, 72 h, read-out: EC50 (nM) Example 46.
As for `CC1CC2(Cc3c[nH]nc3-c3[nH]c4ccc(C(=O)NCc5ccccn5)cc4c32)C1` (centres unmarked) [Compound 4004], the EC50 came out at 54 nM.

Take `CC1(C)Cc2c[nH]nc2-c2[nH]c3ccc(C(N)=O)cc3c21` [Compound 1011]: the concentration giving a half-maximal response (EC50) is 72 nM.

As to `CC1(C)Cc2c[nH]nc2-c2[nH]c3ccc(C(=O)NC4CCN(C(=O)c5ccccn5)C4)cc3c21` (centres unmarked) [Compound 1015], the EC50 is 12 nM. For `Cc1ncc2c(n1)-c1[nH]c3ccc(C(=O)NC4CCS(=O)(=O)C4)cc3c1C(C)(C)C2` (centres unmarked) [Compound 2028] the value was 885 nM. In the case of `CC1(C)Cc2cnc(N)nc2-c2[nH]c3ccc(C(=O)NCc4ccccn4)cc3c21` [Compound 2022], the 50% effective concentration (EC50) stood at 1350 nM. Consider `CC1(C)Cc2sc(N)nc2-c2[nH]c3ccc(C(=O)NC4CCS(=O)(=O)C4)cc3c21` (centres unmarked) [Compound 2014], for which the EC50 is 280 nM.

Regarding `CC(C)S(=O)(=O)CCNC(=O)c1ccc2[nH]c3c(c2c1)C1(CCC1)Cc1c[nH]nc1-3` [Compound 3011], the concentration giving a half-maximal response (EC50) is 2.8 nM. Take `O=C(NC1CCN(C(=O)c2ccccn2)C1)c1ccc2[nH]c3c(c2c1)C1(CCC1)Cc1c[nH]nc1-3` (centres unmarked) [Compound 3018]: the EC50 came out at 6.7 nM.

As to `CC1(C)Cn2ccnc2-c2[nH]c3ccc(C(=O)NC4CCOCC4)cc3c21` [Compound 2012], the EC50 was 230 nM. Turning to `CC1(C)Cc2c[nH]nc2-c2[nH]c3ccc(C(=O)Nc4cccnc4)cc3c21` [Compound 1126], the half-maximal effective concentration (EC50) is 65 nM. With `Cn1cc2c(n1)-c1[nH]c3ccc(C(=O)NCc4ccccn4)cc3c1C(C)(C)C2` [Compound 2004], the EC50 came to 109 nM. `CC1(C)Cn2cnnc2-c2[nH]c3ccc(C(=O)NCc4ccccn4)cc3c21` [Compound 2001]: the 50% effective concentration (EC50) stood at 1400 nM. `CC1(C)Cc2c[nH]nc2-c2[nH]c3ccc(C(=O)N[C@H]4CCOC4)cc3c21` [Compound 1006]: the concentration giving a half-maximal response (EC50) is 112 nM. Turning to `Cc1nc2c(s1)CC(C)(C)c1c-2[nH]c2ccc(C(=O)NC3CCS(=O)(=O)C3)cc12` (centres unmarked) [Compound 2018], the 50% effective concentration (EC50) worked out at 320 nM. Regarding `CC1(C)c2c[nH]nc2-c2[nH]c3ccc(C(=O)NC4CCN(C(=O)c5ncn[nH]5)C4)cc3c21` (centres unmarked) [Compound 5002], the concentration giving a half-maximal response (EC50) was found to be 59 nM. The result for `COC(=O)c1ccc2[nH]c3c(c2c1)C(C)(C)Cc1c[nH]nc1-3` [Compound 2020] reads 97 nM; that for `CC(C)NC(=O)N1CCC(NC(=O)c2ccc3[nH]c4c(c3c2)C(C)(C)Cc2c[nH]nc2-4)C1` (centres unmarked) [Compound 1118], 19 nM.

What is called EC50 is the midpoint of the concentration-response curve.
